Assay results from patent publication US20260294874A1, “COMPOSITIONS COMPRISING MODULATORS OF RIBONUCLEOPROTEIN GRANULE FORMATION AND DISSOLUTION AND METHODS OF USE THEREOF” (University of Virginia Patent Foundation, priority 2023, published 2026).
“Also recorded” adds a separate entry of the source.

Test system: stress granules (G3BP1 foci) in HeLa cells
Experiment: Immunofluorescence phenotypic screen for stress granules (α-G3BP1) in stressed HeLa cells
Format: cell-based
Settings: 2 h; for effect on SGs (in words): 25 μM; for inhibition at 25 µM: read-out: reduction/inhibition of SGs/cell
Protocol: SuTEx compound treatments. Prior to treatments, cells were washed twice with warm phosphate-buffered saline (PBS) and exchanged with serum-free DMEM (supplemented with 1% L-glutamine) for at least 30 minutes at 37° C. with 5% CO2. Compounds were then added as 1000×DMSO stocks (10 μL for 10 cm dishes and 3 μL for 6-well dishes), plates were mixed gently, and cells were incubated for two hours. All compounds were thoroughly vortexed and sonicated for five minutes prior to addition to ensure complete solvation. For microscopy experiments, cultures were seeded at 150,000 cells in 3 mL of DMEM in 6-well THERMO SCIENTIFIC™ BIOLITE™ brand microwell plates (Catalog No. 12556004; Thermo Fisher Scientific Inc., Waltham, Massachusetts. United States of America). For collection, media was aspirated, and cells were washed once with cold PBS before scraping from plates. Cells were centrifuged at 500×g at 4° C. for 5 minutes and supernatant was removed. Cell pellets were resuspended in cold PBS (1 mL) and centrifuged at 1,400×g at 4° C. for 3 minutes. Supernatant was again removed, and pellets were then snap-frozen in liquid nitrogen and stored at −80° C. until needed.
Immunofluorescence. Immunofluorescence (IF) of HEK293T cells was performed as previously described in Ciancone et al., 2022. HeLa cells were seeded at 9.0×10^4 in a 24-well plate with 12-mm glass coverslips. The next day, the cells were treated with 25 μM SuTEx probe for 2 hours in DMEM medium without FBS. The cells were then treated with 75 μM NaAsO2 for 30 minutes and fixed with 3% paraformaldehyde in PBS for 15 minutes at room temperature (RT) and washed with PBS twice. The fixed cells were permeabilized with PBST (0.1% Triton X-100) for 15 minutes at room temperature and blocked with 5% goat serum in PBST for 30 minutes at RT. The cells were incubated with anti-G3BP1 antibody H-10 (Catalog No. sc-365338 at 1:200 dilution; Santa Cruz Biotechnology, Inc., Dallas, Texas, United States of America) for 2 hours at RT and washed with PBST (0.1% Tween-20) for 5 minutes three times. Next, cells were incubated with goat anti-mouse Alexa 594 antibody (Catalog No. 115-585-003 at 1:800 dilution; Jackson ImmunoResearch, West Grove, Pennsylvania, United States of America) for 30 minutes at RT. The cells were washed twice with PBST, stained with Hoechst 33342 (Catalog No. H3570 at […]; Thermo Fischer Scientific) in PBST for 5 minutes, and washed with PBS twice for 5 minutes. The coverslips were mounted in PROLONG™ Gold AntiFade Mountant (Catalog No. P36930, Thermo Fisher Scientific) and imaged using NIS Elements AR software and a Nikon Eclipse Ti microscope equipped with a ×100 objective and CMOS camera. […] A CellProfiler pipeline was developed to quantify the number of stress granules under each condition. Briefly, cells were recognized as blue^+ (nuclei) red^+ (G3BP1) objects, and the red^+ granules that meet the shape and size threshold were identified and counted. Cells on the border of linages were excluded from the analysis for more accurate quantification.
We used immunofluorescence (IF) detection for phenotypic screening of SuTEx compound activity on stress-induced PB and SG levels in cells (FIG. 1B). PBs were induced through glucose deprivation of HEK293T cells and detected by immunofluorescence with anti-enhancer of mRNA-decapping protein 4 (EDC4) as previously described (Kedersha & Anderson, 2007; Ciancone et al., 2022) (~4 vs 2 PBs/cell in −glucose and +glucose conditions, respectively; FIG. 8). EDC4 is an established PB marker for mammalian cells and is important for PB formation (Kedersha & Anderson, 2007; Luo et al., 2018). SGs were induced in HeLa cells by [COMPOUND LEFT OUT] treatments and detected by fluorescent staining with anti-Ras GTPase-activating protein-binding protein 1 (G3BP1) antibody (75 μM [COMPOUND LEFT OUT], 30 min; FIG. 9). G3BP1 foci have been used in previous IF studies to identify SGs in cells (Kedersha & Anderson, 2007). […]

`COc1ccc(S(=O)(=O)n2cc(C3CCCCC3)nn2)cc1` [HHS-166, 4-Cyclohexyl-1-((4-methoxyphenyl)sulfonyl)-111-1,2,3-triazole] was tested, and the “effect on SGs (in words)” value was “moderate, but statistically significant inhibitory activity; also recorded: enriched activity; also recorded: inhibits SG assembly; also recorded: inhibited SGs” and the inhibition at 25 µM (Homo sapiens) was ~50%.

In the case of `COc1ccc(S(=O)(=O)n2cc(CS(C)(=O)=O)nn2)cc1` [AHL-030, 1-((4-Methoxyphenyl)sulfonyl)-4-((methylsulfonyl)methyl)-1H-1,2,3-triazole], the “effect on SGs (in words)” value is reported as “SG enhancer; also recorded: SG-enhancing; also recorded: enhance SGs; also recorded: increased SGs” and the fold induction at 25 µM (Homo sapiens, read-out: increase in SGs per cell) is reported as ~2.

With `CC(C)c1cc(C(C)C)c(S(=O)(=O)n2cc(-c3ccc(C(F)(F)F)cc3)nn2)c(C(C)C)c1` [AHL-003] the “effect on SGs (in words)” value was “block both types of RNP granules; also recorded: inhibited” and the inhibition at 25 µM (Homo sapiens) was > 70%.
